Measured values from patent publication US10219516B2, “Molecules having pesticidal utility, and intermediates, compositions, and processes, related thereto” (priority 2015, dated 2019).

Tests used:
Assay type in all cases: in vivo
[1] = tested on: Beet Armyworm (Spodoptera exigua, LAPHEG); assay: Bioassay on Beet Armyworm (BAW), 128-well diet tray assay; conditions: Species BAW (Beet Armyworm), read-out: BAW (Biological Results, rating)
Procedure, shortened: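 Artificial diet surface-treated with 50 μg/cm^2 test molecule in 90:10 acetone-water, dried, then infested with one to five second instar larvae per well. Held covered and vented at 25° C., 14:10 light-dark for five to seven days; percent mortality recorded per well and averaged over eight wells.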

[2] = tested on: Cabbage Looper (Trichoplusia ni, TRIPNI); assay: Bioassay on Cabbage Looper (CL), 128-well diet tray assay; conditions: Trichoplusia ni; Species CL (Cabbage Looper); read-out: CL (Biological Results, rating)
Procedure, shortened: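 Test molecule is dissolved in 90:10 acetone-water and applied at 50 μg/cm^2 onto artificial diet, then dried. One to five second-instar larvae go into each of eight wells. Trays, sealed but vented, stay at 25° C., 14:10 light-dark, five to seven days, after which mortality is averaged.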

[3] = tested on: Yellow Fever Mosquito (Aedes aegypti, AEDSAE); assay: Bioassay on Yellow Fever Mosquito (YFM), 96-well plate larval assay; conditions: Species YFM (Yellow Fever Mosquito)
Procedure, shortened: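 Compound stocks at 4000 ppm in DMSO were diluted with 90:10 water/acetone, and 15 μL aliquots were dispensed into six replicate plates. About 1-day-old larvae in liver-powder water were added per well. Plates were covered and held at room temperature for 3 days before each well was scored for mortality.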

Cc1cc(N)ccc1NC(=O)c1cccc(NC(=O)[C@H]2[C@H](c3cc(Cl)c(Cl)c(Cl)c3)C2(Cl)Cl)c1 (relative stereo) [F264, trans-N-(4-Amino-2-methylphenyl)-3-(2,2-dichloro-3-(3,4,5-trichlorophenyl)cyclopropane-1-carboxamido)benzamide]
pest or weed control at 50 µg/cm2 [1]: 50 to 100%
pest or weed control at 50 µg/cm2 [2]: 50 to 100%
YFM (Biological Results, rating) [3]: A (80-100)

Cc1cc(N)ccc1NC(=O)c1cccc(NC(=O)[C@H]2[C@H](c3ccc(Cl)c(Cl)c3)C2(Cl)Cl)c1 (relative stereo) [F265, trans-N-(4-Amino-2-methylphenyl)-3-(2,2-dichloro-3-(3,4-dichlorophenyl)cyclopropane-1-carboxamido)benzamide]
pest or weed control at 50 µg/cm2 [1]: 50 to 100%
pest or weed control at 50 µg/cm2 [2]: 50 to 100%
YFM (Biological Results, rating) [3]: A (80-100)

Cc1cc(N)ccc1NC(=O)c1cccc(NC(=O)[C@H]2[C@H](c3cc(Cl)cc(Cl)c3)C2(Cl)Cl)c1 (relative stereo) [F266, trans-N-(4-Amino-2-methylphenyl)-3-(2,2-dichloro-3-(3,5-dichlorophenyl)cyclopropane-1-carboxamido)benzamide]
pest or weed control at 50 µg/cm2 [1]: 50 to 100%
pest or weed control at 50 µg/cm2 [2]: 50 to 100%
YFM (Biological Results, rating) [3]: A (80-100)

N#Cc1cc(F)ccc1NC(=O)c1cccc(NC(=O)[C@H]2[C@H](c3cc(Cl)c(Cl)c(Cl)c3)C2(Cl)Cl)c1 (relative stereo) [F267, trans-N-(2-cyano-4-fluorophenyl)-3-(2,2-dichloro-3-(3,4,5-trichlorophenyl)cyclopropane-1-carboxamido)benzamide]
pest or weed control at 50 µg/cm2 [1]: 50 to 100%
pest or weed control at 50 µg/cm2 [2]: 50 to 100%
YFM (Biological Results, rating) [3]: B (More than 0-Less than 80)

N#Cc1cc(F)ccc1NC(=O)c1cccc(NC(=O)[C@H]2[C@H](c3ccc(Cl)c(Cl)c3)C2(Cl)Cl)c1 (relative stereo) [F268, trans-N-(2-Cyano-4-fluorophenyl)-3-(2,2-dichloro-3-(3,4-dichlorophenyl)cyclopropane-1-carboxamido)benzamide]
pest or weed control at 50 µg/cm2 [1]: 50 to 100%
pest or weed control at 50 µg/cm2 [2]: 50 to 100%
YFM (Biological Results, rating) [3]: A (80-100)

O=C(Nc1ccc(F)cc1)c1cc(NC(=O)[C@H]2[C@H](c3ccc(Br)c(Cl)c3)C2(Cl)Cl)ccc1Cl (relative stereo) [F270, 5-(trans-3-(4-Bromo-3-chlorophenyl)-2,2-dichlorocyclopropane-1-carboxamido)-2-chloro-N-(4-fluorophenyl)benzamide]
pest or weed control at 50 µg/cm2 [1]: 50 to 100%
pest or weed control at 50 µg/cm2 [2]: 50 to 100%
YFM (Biological Results, rating) [3]: A (80-100)

N#Cc1cc(F)ccc1NC(=O)c1cccc(NC(=O)[C@H]2[C@H](c3cc(Cl)cc(Cl)c3)C2(Cl)Cl)c1 (relative stereo) [F271, trans-N-(2-Cyano-4-fluorophenyl)-3-(2,2-dichloro-3-(3,5-dichlorophenyl)cyclopropane-1-carboxamido)benzamide]
pest or weed control at 50 µg/cm2 [1]: 50 to 100%
pest or weed control at 50 µg/cm2 [2]: 50 to 100%
YFM (Biological Results, rating) [3]: A (80-100)

Cc1cc(F)ccc1NC(=O)c1cccc(NC(=O)[C@H]2[C@H](c3cc(Cl)cc(Cl)c3)C2(Cl)Cl)c1 (relative stereo) [F272, trans-3-(2,2-Dichloro-3-(3,5-dichlorophenyl)cyclopropane-1-carboxamido)-N-(4-fluoro-2-methylphenyl)benzamide]
pest or weed control at 50 µg/cm2 [1]: 50 to 100%
pest or weed control at 50 µg/cm2 [2]: 50 to 100%
YFM (Biological Results, rating) [3]: A (80-100)

CN(C(=O)c1cccc(NC(=O)[C@H]2[C@H](c3cc(Cl)cc(Cl)c3)C2(Cl)Cl)c1)c1ccc(F)cc1 (relative stereo) [F273, trans-3-(2,2-Dichloro-3-(3,5-dichlorophenyl)cyclopropane-1-carboxamido)-N-(4-fluorophenyl)-N-methylbenzamide]
pest or weed control at 50 µg/cm2 [1]: 50 to 100%
pest or weed control at 50 µg/cm2 [2]: 50 to 100%
YFM (Biological Results, rating) [3]: A (80-100)

O=C(Nc1ccc(F)cc1Cl)c1cccc(NC(=O)[C@H]2[C@H](c3cc(Cl)cc(Cl)c3)C2(Cl)Cl)c1 (relative stereo) [F274, trans-N-(2-Chloro-4-fluorophenyl)-3-(2,2-dichloro-3-(3,5-dichlorophenyl)cyclopropane-1-carboxamido)benzamide]
pest or weed control at 50 µg/cm2 [1]: 50 to 100%
pest or weed control at 50 µg/cm2 [2]: 50 to 100%
YFM (Biological Results, rating) [3]: A (80-100)

N#Cc1ccc(NC(=O)c2cc(NC(=O)[C@H]3[C@H](c4cc(Cl)cc(Cl)c4)C3(Cl)Cl)ccc2Cl)c(C#N)c1 (relative stereo) [F287, trans-2-Chloro-5-(2,2-dichloro-3-(3,5-dichlorophenyl)cyclopropane-1-carboxamido)-N-(2,4-dicyanophenyl)benzamide]
pest or weed control at 50 µg/cm2 [1]: 50 to 100%
pest or weed control at 50 µg/cm2 [2]: 50 to 100%
YFM (Biological Results, rating) [3]: A (80-100)

COC(=O)CNc1ccc(NC(=O)c2cc(NC(=O)[C@H]3[C@H](c4cc(Cl)cc(Cl)c4)C3(Cl)Cl)ccc2Cl)c(C)c1 (relative stereo) [F288, trans-methyl (4-(2-chloro-5-(2,2-dichloro-3-(3,5-dichlorophenyl)cyclopropane-1-carboxamido)benzamido)-3-methylphenyl)glycinate]
pest or weed control at 50 µg/cm2 [1]: 50 to 100%
pest or weed control at 50 µg/cm2 [2]: 50 to 100%
YFM (Biological Results, rating) [3]: A (80-100)

C=Cc1ccc([C@H]2[C@H](C(=O)Nc3ccc(Cl)c(C(=O)Nc4ccc(F)cc4)c3)C2(Cl)Cl)cc1Cl (relative stereo) [F289, 2-chloro-5-(trans-2,2-dichloro-3-(3-chloro-4-vinylphenyl)cyclopropane-1-carboxamido)-N-(4-fluorophenyl)benzamide]
pest or weed control at 50 µg/cm2 [1]: 50 to 100%
pest or weed control at 50 µg/cm2 [2]: 50 to 100%
YFM (Biological Results, rating) [3]: A (80-100)

O=C(Nc1ccc([N+](=O)[O-])cn1)c1cc(NC(=O)[C@H]2[C@H](c3cc(Cl)cc(Cl)c3)C2(Cl)Cl)ccc1Cl (relative stereo) [F293, 2-Chloro-5-(trans-2,2-dichloro-3-(3,5-dichlorophenyl)cyclopropane-1-carboxamido)-N-(5-nitropyridin-2-yl)benzamide]
pest or weed control at 50 µg/cm2 [1]: 50 to 100%
pest or weed control at 50 µg/cm2 [2]: 50 to 100%
YFM (Biological Results, rating) [3]: A (80-100)

O=C(Nc1ncccn1)c1cc(NC(=O)[C@H]2[C@H](c3cc(Cl)cc(Cl)c3)C2(Cl)Cl)ccc1Cl (relative stereo) [F294, trans-2-Chloro-5-(2,2-dichloro-3-(3,5-dichlorophenyl)cyclopropane-1-carboxamido)-N-(pyrimidin-2-yl)benzamide]
pest or weed control at 50 µg/cm2 [1]: 50 to 100%
pest or weed control at 50 µg/cm2 [2]: 50 to 100%
YFM (Biological Results, rating) [3]: A (80-100)

O=C(Nc1cncnc1)c1cc(NC(=O)[C@H]2[C@H](c3cc(Cl)cc(Cl)c3)C2(Cl)Cl)ccc1Cl (relative stereo) [F295, trans-2-Chloro-5-(2,2-dichloro-3-(3,5-dichlorophenyl)cyclopropane-1-carboxamido)-N-(pyrimidin-5-yl)benzamide]
pest or weed control at 50 µg/cm2 [1]: 50 to 100%
pest or weed control at 50 µg/cm2 [2]: 50 to 100%
YFM (Biological Results, rating) [3]: A (80-100)

O=C(Nc1ccncn1)c1cc(NC(=O)[C@H]2[C@H](c3cc(Cl)cc(Cl)c3)C2(Cl)Cl)ccc1Cl (relative stereo) [F296, trans-2-Chloro-5-(2,2-dichloro-3-(3,5-dichlorophenyl)cyclopropane-1-carboxamido)-N-(pyrimidin-4-yl)benzamide]
pest or weed control at 50 µg/cm2 [1]: 50 to 100%
pest or weed control at 50 µg/cm2 [2]: 50 to 100%
YFM (Biological Results, rating) [3]: A (80-100)

Cc1cc(NC(=O)c2cc(NC(=O)[C@H]3[C@H](c4cc(Cl)cc(Cl)c4)C3(Cl)Cl)ccc2Cl)ncc1F (relative stereo) [F297, trans-2-Chloro-5-(2,2-dichloro-3-(3,5-dichlorophenyl)cyclopropane-1-carboxamido)-N-(5-fluoro-4-methylpyridin-2-yl)benzamide]
pest or weed control at 50 µg/cm2 [1]: 50 to 100%
pest or weed control at 50 µg/cm2 [2]: 50 to 100%
YFM (Biological Results, rating) [3]: A (80-100)

N#Cc1c(F)cccc1NC(=O)c1cc(NC(=O)[C@H]2[C@H](c3cc(Cl)cc(Cl)c3)C2(Cl)Cl)ccc1Cl (relative stereo) [F298, 2-Chloro-N-(2-cyano-3-fluorophenyl)-5-(trans-2,2-dichloro-3-(3,5-dichlorophenyl)cyclopropane-1-carboxamido)benzamide]
pest or weed control at 50 µg/cm2 [1]: 50 to 100%
pest or weed control at 50 µg/cm2 [2]: 50 to 100%
YFM (Biological Results, rating) [3]: A (80-100)

N#Cc1cccc(F)c1NC(=O)c1cc(NC(=O)[C@H]2[C@H](c3cc(Cl)cc(Cl)c3)C2(Cl)Cl)ccc1Cl (relative stereo) [F299, 2-Chloro-N-(2-cyano-6-fluorophenyl)-5-(trans-2,2-dichloro-3-(3,5-dichlorophenyl)cyclopropane-1-carboxamido)benzamide]
pest or weed control at 50 µg/cm2 [1]: 50 to 100%
pest or weed control at 50 µg/cm2 [2]: 50 to 100%
YFM (Biological Results, rating) [3]: A (80-100)

Cc1cc(F)c(NC(=O)c2cc(NC(=O)[C@H]3[C@H](c4cc(Cl)cc(Cl)c4)C3(Cl)Cl)ccc2Cl)c(C#N)c1 (relative stereo) [F300, 2-Chloro-N-(2-cyano-6-fluoro-4-methylphenyl)-5-(trans-2,2-dichloro-3-(3,5-dichlorophenyl)cyclopropane-1-carboxamido)benzamide]
pest or weed control at 50 µg/cm2 [1]: 50 to 100%
pest or weed control at 50 µg/cm2 [2]: 50 to 100%
YFM (Biological Results, rating) [3]: A (80-100)
